Experimental data as given in patent publication US9572786B2, “Use of capsiate or dihydrocapsidate” (Catholic University Industry Academy Cooperation Foundation, priority 2007, dated 2017).

Assays:
HUVEC [1] = assay: [14C] sucrose permeability assay; assay type: cell-based, human; conditions: 5, 10, 25 μM, VEGF 50 ng/mL for 1 hour
Protocol: [^14C] sucrose permeability assay was carried out in order to identify the effect of capsiate or dihydrocapsiate on VEGF-induced endothelial permeability. In brief, HUVEC were placed on a transwell filter (Corning Costar). At confluence, the cells were cultured in M199 medium containing 1% FBS for 3 hours. After treating with capsiate or dihydrocapsiate at different concentrations (5 μM, 10 μM, 25 μM) for 30 minutes, the cells were treated with VEGF (50 ng/mL) for 1 hour. [^14C] sucrose (0.8 μCi/mL, 50 μL) was added to the upper compartment. 30 minutes later, the irradiation level was measured at the lower compartment using a scintillation counter (Wallac, PerkinElmer).

HaCaT cells = assay: UV-induced intracellular ROS production (DCFH-DA fluorescence microscopy); assay type: cell-based, human; conditions: 50 μM, UV 100 J/m^2, vs UV only control group
Protocol: 5×10^5 HaCaT cells (acquired from Professor N. Fusenig of the German Cancer Research Center), which are a human keratinocyte cell line, were placed on a 60 mm Petri dish (1×10^6 cells for a 100 mm Petri dish) and cultured for 24 hours in Dulbecco's modified Eagle's medium (DMEM) containing 10% fetal bovine serum (FBS).
After treating with 50 μM capsiate for 30 minutes, the cells were washed 3 times with phosphate buffered saline (PBS). In order to induce the production of ROS, UV was irradiated at an intensity of 100 J/m^2, using a UV lamp (FSX 24 T12/UVB/HO, Pansol™ USA). Immediately after the UV irradiation, the cells were washed again with PBS and further cultured for 2 hours in DMEM containing 1% FBS, which was treated with capsiate at the same concentration as in the pre-treatment. After treating with 25 μM 2,7-dichlorofliuorescin diacetate (DCFH-DA) in Hank's balanced salt solution (HBSS, BioWhittaker Cambrex, USA) for 30 minutes, the cells were washed 3 times with PBS.
The treated cells were observed under a fluorescence microscope (Carl Zeiss, USA) in order to measure the ROS produced by the UV irradiation. […]
Inhibition effect on the production of intracellular ROS induced by UV was measured in the same manner as Example 1-1, except for using dihydrocapsiate instead of capsiate.

[2] = system: Human umbilical vein endothelial cells (HUVEC); assay: VEGF-induced proliferation of endothelial cells, MTT assay; assay type: cell-based; conditions: for proliferation of HUVEC induced by VEGF (MTT): 1, 5, 10, 25 μM, 10 ng/mL VEGF, 48 hours; for growth of HUVEC without VEGF (cell toxicity): concentration up to 50 μM without VEGF, not shown in figure
Protocol: MTT assay was carried out investigate the effect of capsiate or dihydrocapsiate on the proliferation of endothelial cells (EC) induced by VEGF.
Human umbilical vein endothelial cells (HUVEC) were placed on a gelatin-coated 24-well plate at a concentration of 2×10^4 cells/well. After culturing for 24 hours, followed by washing twice with M199 medium (Invitrogen, USA), the cells were cultured for 6 hours in M199 medium containing 1% FBS. After addition of capsiate or dihydrocapsiate at different concentrations (1 μM, 5 μM, 10 μM, 25 μM), followed by pre-culturing for 30 minutes, 10 ng/mL VEGF (Upstate, USA) was added and the cells were cultured for 48 hours. Then, 3-(4,5-dimethylthiazol-2-yl)-2,5-diphenyltetrazolium bromide salt (MTT) solution (0.5 mg/mL) was added and the cells were cultured at 37° C. for 3 hours. Remaining MTT was cautiously removed and the formed crystal was dissolved in DMSO for 30 minutes and subjected to absorbance measurement at 560 nm after mixing well for 5 minutes.

HUVEC [3] = assay: Cell cycle analysis by FACS; assay type: cell-based, human; conditions: 1, 5, 10, 25 μM, 10 ng/mL VEGF, 20 hours
Protocol: In order to identify the mechanism of the inhibition of proliferation of endothelial cells confirmed in Example 9, fluorescence-activated cell sorting (FACS) analysis was carried out on the cells at different phases of cell cycle.
3×10^5 HUVEC were placed on a 60 mm plate and cultured for 24 hours. After washing twice with M199 medium (Invitrogen, USA), the cells were cultured in M199 medium containing 1% FBS for 6 hours. After adding capsiate or dihydrocapsiate at different concentrations (1 μM, 5 μM, 10 μM, 25 μM), followed by pre-culturing for 30 minutes, 10 ng/mL VEGF was added and the cells were cultured for 20 hours. Then, the cells were fixed with ethanol cooled in ice. The fixed cells were dehydrated in PBS containing 2% FBS and 0.1% Tween 20 at 4° C. for 30 minutes. After centrifuge, the cells were lysed in the same buffer solution. After treating with RNase (37° C., 1 hr), followed by staining with propidium iodide, analysis was carried out using a FACS analyzer (FACScan DB PharMingen flow cytometer).

HUVEC [4] = assay: Tube formation on Matrigel; assay type: cell-based, human; conditions: 1, 5, 10, 25 μM, VEGF 10 ng/mL, 20 hours
Protocol: The effect of capsiate or dihydrocapsiate on tube formation was investigated according to a method published in the literature [Lee O H et al., 1999, Biochem. Biophys. Res. Commun. 264; 743-750].
In brief, 250 μL of growth factor-reduced Matrigel (10 mg protein/mL) was added to a 16 mm tissue culture well and subjected to polymerization at 37° C. for 30 minutes. HUVEC cultured for in M199 medium containing 1% FBS for 6 hours were treated with trypsin, collected, and resuspended in M199 medium containing 1% FBS. Capsiate or dihydrocapsiate at different concentrations (1 μM, 5 μM, 10 μM, 25 μM) were pre-treated at room temperature for 30 minutes. The cells were added to the Matrigel at a concentration of 1.8×10^5 cells/well and VEGF (10 ng/mL) was added. After culturing for 20 hours, photograph was taken (×200) and the area covered by the tube network was measured according to an optical imaging technique [scanned with Adobe Photoshop and measured with Image-Pro Plus (Media Cybermetics).

cyclin E = assay: Cyclin expression, Western blotting: cyclin E; assay type: cell-based, human; conditions: HUVEC; 1, 5, 10, 25 μM; 10 ng/mL VEGF; 12 hours
Protocol: 3×10^5 HUVEC were placed on a 60 mm plate and cultured for 24 hours. After washing twice with M199 medium (Invitrogen, USA), the cells were cultured in M199 medium containing 1% FBS for 6 hours. After adding capsiate or dihydrocapsiate at different concentrations (1 μM, 5 μM, 10 μM, 25 μM), followed by pre-culturing for 30 minutes, 10 ng/mL VEGF was added and the cells were cultured for 12 hours. The cells were collected and proteins obtained therefrom were quantitated and the expression level of the proteins was identified by Western blotting using antibodies of cyclin D1, cyclin E and cyclin A.

| SMILES | VEGF-increased permeability of endothelial cells (HUVEC [1]) | production of intracellular ROS induced by UV (HaCaT cells) | proliferation of HUVEC induced by VEGF (MTT) [2] | growth of HUVEC without VEGF (cell toxicity) [2] | number of endothelial cells in G1 arrest phase (HUVEC [3]) | VEGF-induced formation of tube-like structures (HUVEC [4]) | VEGF-increased cyclin E expression in protein level (cyclin E) |
| --- | --- | --- | --- | --- | --- | --- | --- |
| COc1cc(COC(=O)CCCC/C=C/C(C)C)ccc1O [capsiate] | decreased in a concentration-dependent manner | decreased remarkably | inhibited by capsiate or dihydrocapsiate in a concentration-dependent manner | grew normally | increase of the number of endothelial cells in G1 arrest phase | reduced | concentration-dependent decrease |
| COc1cc(COC(=O)CCCCCCC(C)C)ccc1O [dihydrocapsiate] | decreased in a concentration-dependent manner | decreased remarkably | inhibited by capsiate or dihydrocapsiate in a concentration-dependent manner | grew normally | increase of the number of endothelial cells in G1 arrest phase | reduced | concentration-dependent decrease |
